In US8623821B2, “Zymogen activators” (Genentech, Inc., priority 2011, dated 2014):
“Also recorded” adds a separate entry of the source. Where a SMILES comes first, the peptide text is derived from it. Bridges are numbered along the chain shown (N, C = ends). [ ]: non-standard residue; d: D form.

What was measured:
scHGF β = biological target: T1, scHGF β (Homo sapiens, UniProt P14210, R494E); assay: scHGF β activation/Met binding assay (biolayer interferometry); conditions: for Kd: peptide titration with 0.5 μM scHGF β, biotinylated Met ECD on sensor, ±stdev of n=3; for AC50: peptide-dependent activation of zHGF β binding to surface immobilized Met ECD, read-out: apparent activation constant (AC50); for binding to scHGF β / activation of Met binding, in words: Met-coated sensor; for fold more potent than previously described peptides derived from the native HGF β N-terminus: versus Landgraf et al. 2010 peptides
T1 construct: the scHGF β-chain (residues Asn^479 to Ser^728) contains the R494E mutation; His-tag (C); made in house; host or cells: insect cells (pAcGP67 vector)
T1 sequence (P14210 479-728 R494E): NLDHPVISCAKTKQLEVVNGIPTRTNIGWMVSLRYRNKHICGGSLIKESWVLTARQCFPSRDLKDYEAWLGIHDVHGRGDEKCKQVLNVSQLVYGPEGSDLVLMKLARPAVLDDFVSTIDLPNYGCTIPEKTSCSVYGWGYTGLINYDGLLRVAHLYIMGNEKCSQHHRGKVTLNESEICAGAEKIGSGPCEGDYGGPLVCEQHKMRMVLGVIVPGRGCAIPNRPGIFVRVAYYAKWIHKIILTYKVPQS
T1 sequence (P08581 27-515 partner limits assumed): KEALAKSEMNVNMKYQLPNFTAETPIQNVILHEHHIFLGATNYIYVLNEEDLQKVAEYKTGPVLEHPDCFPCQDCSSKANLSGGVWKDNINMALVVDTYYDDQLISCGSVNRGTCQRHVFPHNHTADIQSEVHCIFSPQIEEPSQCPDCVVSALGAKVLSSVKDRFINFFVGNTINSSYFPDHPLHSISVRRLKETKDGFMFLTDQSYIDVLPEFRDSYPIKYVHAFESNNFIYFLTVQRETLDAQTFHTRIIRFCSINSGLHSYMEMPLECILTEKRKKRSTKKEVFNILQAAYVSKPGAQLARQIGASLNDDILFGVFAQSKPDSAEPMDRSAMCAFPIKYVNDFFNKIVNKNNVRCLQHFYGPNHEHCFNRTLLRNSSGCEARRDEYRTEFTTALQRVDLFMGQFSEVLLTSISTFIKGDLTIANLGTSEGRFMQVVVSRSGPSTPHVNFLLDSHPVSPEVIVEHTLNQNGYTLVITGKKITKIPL
Protocol: (§1) Met binding assays were carried out utilizing the OctetRed™ biolayer interferometry instrument (ForteBio, Inc.) as reported previously (Landgraf, K. E. et al. (2010) J Biol Chem 285: 40362-72). Biotinylated Met ECD (Sema/PSI-AviTag) was captured on the surface of streptavidin optical sensor tips (SA biosensors, ForteBio, Inc.), and transferred into buffer containing 0.5 μM scHGF β-chain variants in the presence of increasing concentration of indicated peptides. Association and dissociation reactions were monitored to ensure reversible binding between scHGF β and Met. Binding was quantified using the steady-state levels of surface response from the association reaction. Equilibrium constants were derived by least squares fitting of the titration data to a single-site binding equation. Errors reported are ±stdev of n=3 independent experiments.
Based on the finding that the consensus ZAPs contain features consistent with binding and inserting into the activation pocket, several related peptides were synthesized and utilized in a previously established scHGF β activation assay to assess their affinities and ability to active Met binding (Landgraf, K. E. et al. (2010) J Biol Chem 285: 40362-72). Since scHGF β can only weakly interact with the Met Sema-PSI domain compared to the active HGF β form, biolayer interferometry was used in the activation assay to measure the ability of a peptide to directly enhance the binding affinity of scHGF β to a streptavidin sensor surface coated with biotinylated Met (Landgraf, K. E. et al. (2010) J Biol Chem 285: 40362-72). Thus, titration of an activator peptide should result in a significant increase in the surface response signal due to enhanced scHGF β binding to Met.

scHGF = scHGF (Homo sapiens, UniProt P14210, R494E); assay: BxPC-3 cell survival assay, peptide titrations in the presence of scHGF; format: cell-based; design: Full-length recombinant HGF proteins were expressed in 1-liter fermentation cultures of Chinese hamster ovary (CHO) cells; made in house; host or cells: CHO cells (scHGF); conditions: for activation of scHGF / cell survival, in words: peptide plus scHGF
Chain of scHGF (P14210 32-728 R494E): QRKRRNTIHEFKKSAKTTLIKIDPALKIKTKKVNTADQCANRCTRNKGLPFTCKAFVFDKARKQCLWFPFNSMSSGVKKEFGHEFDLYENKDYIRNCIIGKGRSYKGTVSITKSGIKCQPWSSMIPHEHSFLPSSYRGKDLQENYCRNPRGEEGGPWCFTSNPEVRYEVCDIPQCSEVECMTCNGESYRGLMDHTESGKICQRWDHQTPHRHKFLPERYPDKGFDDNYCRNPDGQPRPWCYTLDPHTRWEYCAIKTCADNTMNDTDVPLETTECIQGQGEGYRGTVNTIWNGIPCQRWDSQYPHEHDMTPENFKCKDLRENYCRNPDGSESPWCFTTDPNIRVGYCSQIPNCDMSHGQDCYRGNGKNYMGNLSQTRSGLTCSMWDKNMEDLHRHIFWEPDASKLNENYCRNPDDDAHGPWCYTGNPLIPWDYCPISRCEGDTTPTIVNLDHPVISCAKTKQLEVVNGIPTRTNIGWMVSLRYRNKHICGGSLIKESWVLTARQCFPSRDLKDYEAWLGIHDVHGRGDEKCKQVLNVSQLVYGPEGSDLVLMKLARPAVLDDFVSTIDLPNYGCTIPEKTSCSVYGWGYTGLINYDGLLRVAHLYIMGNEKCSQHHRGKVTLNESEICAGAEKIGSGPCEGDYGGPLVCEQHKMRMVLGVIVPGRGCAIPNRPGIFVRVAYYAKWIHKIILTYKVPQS
Protocol: (§2) BxPC-3 cells were obtained from ATCC and maintained in cell culture medium (RPMI, 10% FBS (Sigma), 50 U/ml penicillin/50 μg/ml streptomycin, 2 mM glutamine). For the survival assay, cells were plated at 10,000 cells/well in 96 well tissue culture plates (Falcon 353072) in 50 μl assay diluent (RPMI, 0.1% BSA (Sigma) 50 U/ml penicillin/50 μg/ml streptomycin, 2 mM glutamine). Cells were allowed to attach for 1-2 h in a 37° C. CO2 incubator. Human HGF proteins (HGF, scHGF or scHGF plus peptide titrations) were pre-incubated at room temperature in assay diluent. HGF/peptide mixtures were added to cells in microtiter plates in triplicate at 50 μl per well and plates were incubated at 37° C. in a CO2 incubator. Final concentrations of HGF variants were 400 ng/ml and peptide concentrations were titrated accordingly. After 72 h, 25 μl alamar Blue (Serotec, BUF012B) was added to each well and incubate an additional 2 h at 37° C. in a CO2 incubator. Plates were agitated vigorously for 10 min at room temperature, and fluorescence was read at 530-590 nm in a fluorescent plate reader.
Using Bx-PC3 cells, peptide titrations in the presence of scHGF were performed and observed robust activation was seen of scHGF signaling through Met, which reached levels equivalent HGF-induced signaling.
Cellular assays were used to address whether the optimized ZAPtides act as allosteric activators of pro-HGF and stimulate Met signaling in biologically relevant settings of cell survival and migration. […] Importantly, ZAPtides required the presence of scHGF as well as induced […] cell survival that was antagonized by an HGF-blocking anti-Met antibody, each confirming Met pathway selectivity.

Peptide solubility = format: physicochemical
Met = assay: Binding of peptide-zHGF β complex to surface immobilized Met ECD (biolayer interferometry); conditions: read-out: affinity of peptide-zHGF β complex for Met
Protocol: as §1

scHGF β D672N mutant = biological target: T2, scHGF β D672N mutant (Homo sapiens, UniProt P14210, D672N/R494E); assay: scHGF β activation/Met binding assay with activation-pocket mutant; conditions: Asp672 to Asn in activation pocket
T2 construct: the scHGF β-chain (residues Asn^479 to Ser^728) contains the R494E mutation; His-tag (C); made in house; host or cells: insect cells (pAcGP67 vector)
T2 sequence (P14210 479-728 R494E/D672N): as the sequence (P14210 479-728 R494E) above, with D194N counted along it
Protocol: as §1
However, the partial activity observed with Asp in position 3 was consistent with the fact that the native sequence contains a highly similar Asn residue, but the strained backbone conformation necessary to accommodate the Asp during N-terminal insertion would be energetically unfavorable. […] In addition, the solubility of this peptide variant is enhanced by the polar aspartic acid side chain while maintaining increased activity compared to the IVDG.14 variant.

BxPC-3 cells = assay: BxPC-3 cell survival assay, HGF proteins alone; format: cell-based, human
Protocol: as §2, with “Final concentrations of HGF variants were 400 ng/ml and peptide concentrations were titrated accordingly.” left out

With CC[C@H](C)[C@H](N)C(=O)N[C@H](C(=O)NCC(=O)NCC(=O)N[C@@H](CC(=O)O)C(=O)N1CCC[C@H]1C(=O)N[C@@H](Cc1ccc(O)cc1)C(=O)N[C@@H](Cc1c[nH]c2ccccc12)C(=O)N[C@H](C(=O)N1CCC[C@H]1C(=O)N[C@@H](Cc1c[nH]cn1)C(=O)N1CCC[C@H]1C(=O)NCC(=O)N[C@@H](CC(=O)O)C(=O)N[C@@H](C)C(N)=O)C(C)C)[C@@H](C)CC [ZAP.01, I I G G D P Y W V P H P G D A] (H-IIGGDPYWVPHPGDA-NH2; N-terminus assumed) the Kd (scHGF β) was 6 ± 1 µM and the “EC50 of scHGF activation, order of magnitude in words” value (scHGF; Bx-PC3 cell survival, dose-titrations) was “micromolar”.
With CC[C@H](C)[C@H](N)C(=O)N[C@H](C(=O)NCC(=O)NCC(=O)N[C@H]1CSSC[C@@H](C(=O)N[C@H](C(N)=O)[C@@H](C)CC)NC(=O)[C@H](CCC(=O)O)NC(=O)[C@H](CCC(=O)O)NC(=O)[C@H](CCCNC(=N)N)NC(=O)[C@H](CC(=O)O)NC(=O)[C@H](CCSC)NC(=O)[C@H](Cc2c[nH]c3ccccc23)NC(=O)[C@H](Cc2ccc(O)cc2)NC(=O)[C@@H]2CCCN2C1=O)[C@@H](C)CC [ZAP.03] (H-IIGGCPYWMDREECI-NH2; disulfide 5-14) the Kd (scHGF β) was 0.3 ± 0.1 µM and the AC50 (scHGF β) was 0.3 µM.
In the case of CC[C@H](C)[C@H](N)C(=O)N[C@H](C(=O)NCC(=O)NCC(=O)N[C@@H](CO)C(=O)N1CCC[C@H]1C(=O)N[C@@H](Cc1ccc(O)cc1)C(=O)N[C@@H](Cc1c[nH]c2ccccc12)C(=O)N[C@@H](CCSC)C(=O)N[C@@H](CC(=O)O)C(=O)N[C@@H](CCCNC(=N)N)C(=O)N[C@@H](CCC(=O)O)C(=O)N[C@@H](CCC(=O)O)C(=O)N[C@@H](CO)C(=O)N[C@H](C(N)=O)[C@@H](C)CC)[C@@H](C)CC [ZAP.03S, I I G G S P Y W M D R E E S I] (H-IIGGSPYWMDREESI-NH2; N-terminus assumed), the Kd (scHGF β) is reported as 59 ± 30 µM and the “binding to scHGF β / activation of Met binding, in words” value (from here on “binding to scHGF β / activation”) (scHGF β) is reported as “significantly impaired”.
For “I V G D Y P W W M D V (IVGDYPWWMDV) [IVGD.14]”, the “binding to scHGF β / activation” value (scHGF β) was “no detectable binding”.
With CC[C@H](C)[C@H](N)C(=O)N[C@H](C(=O)N[C@@H](CC(=O)O)C(=O)NCC(=O)N[C@@H](Cc1ccc(O)cc1)C(=O)N1CCC[C@H]1C(=O)N[C@@H](Cc1c[nH]c2ccccc12)C(=O)N[C@@H](Cc1c[nH]c2ccccc12)C(=O)N[C@@H](CCSC)C(=O)N[C@@H](CC(=O)O)C(=O)N[C@H](C(N)=O)C(C)C)C(C)C [IVDG.14, I V D G Y P W W M D V] (H-IVDGYPWWMDV-NH2; N-terminus assumed) the “activation of scHGF / cell survival, in words” value (scHGF; BxPC-3 cells) was “partial scHGF signaling activity”.
In the case of CC[C@H](C)[C@H](N)C(=O)N[C@H](C(=O)N[C@H](CC(=O)O)C(=O)NCC(=O)N[C@@H](Cc1ccc(O)cc1)C(=O)N1CCC[C@H]1C(=O)N[C@@H](Cc1c[nH]c2ccccc12)C(=O)N[C@@H](Cc1c[nH]c2ccccc12)C(=O)N[C@@H](CCSC)C(=O)N[C@@H](CC(=O)O)C(=O)N[C@H](C(N)=O)C(C)C)C(C)C [IVdG.14] (H-IV[dD]GYPWWMDV-NH2), the “solubility, in words” value (Peptide solubility) is reported as “enhanced” and the “fold more potent than previously described peptides derived from the native HGF β N-terminus” value (scHGF β) is reported as 100 fold.
For CC[C@H](C)[C@H](N)C(=O)N[C@H](C(=O)NCC(=O)NCC(=O)N[C@@H](Cc1ccc(O)cc1)C(=O)N1CCC[C@H]1C(=O)N[C@@H](Cc1c[nH]c2ccccc12)C(=O)N[C@@H](Cc1c[nH]c2ccccc12)C(=O)N[C@@H](CCSC)C(=O)N[C@@H](CC(=O)O)C(=O)N[C@H](C(N)=O)C(C)C)C(C)C [IVGG.14, I V G G Y P W W M D V] (H-IVGGYPWWMDV-NH2), the “fold improvement of AC50 over previous activators” value (scHGF β) was > 90 fold, the Kd (scHGF β) was 34 ± 3 µM and the AC50 (scHGF β) was 21 µM. The “fold more potent than previously described peptides derived from the native HGF β N-terminus” value (scHGF β) was “ca. 60 fold”, the Kd (Met) was 690 nM and the “activity of peptide with scHGF β D672N” value (scHGF β D672N mutant) was “lack of activity; also recorded: completely abolished activity”. For the same compound, the EC50 (scHGF; BxPC-3 cells, serum starvation, 72 h, alamar Blue, read-out: EC50 of activation of scHGF, cell survival) was ~20 µM.
With “G V G G Y P W W M D V (GVGGYPWWMDV) [GVGG.14]” the “binding to scHGF β / activation” value (scHGF β) was “lack of activity; also recorded: completely abolished activity” and the “activation of scHGF / cell survival, in words” value (scHGF; BxPC-3 cells) was “no detectable activity”.
For CC[C@H](C)[C@H](N)C(=O)N[C@H](C(=O)NCC(=O)NCC(=O)N[C@@H](CC(=O)O)C(=O)N[C@@H](Cc1ccc(O)cc1)C(=O)N[C@@H](Cc1c[nH]c2ccccc12)C(=O)N[C@@H](Cc1c[nH]c2ccccc12)C(=O)N[C@H](C(=O)N1CCC[C@H]1C(=O)N[C@H](C(N)=O)[C@@H](C)CC)C(C)C)C(C)C [ZAP.09, IVGGDYWWVPI] (H-IVGGDYWWVPI-NH2; N-terminus assumed), the AC50 (scHGF β) was 42 µM.
With “HGF: proteolytically activated two-chain human hepatocyte growth factor, recombinant” the “stimulation of cell survival by HGF protein alone” value (BxPC-3 cells; 200 ng/ml (FIG. 11A)) was “potently stimulate cell survival” and the “stimulation of cell survival by HGF protein alone” value (BxPC-3 cells; 400 ng/ml (FIG. 6A)) was “potently stimulate cell survival”.
In the case of “I V D D Y P W W M D V (IVDDYPWWMDV) [IVDD.14]”, the “binding to scHGF β / activation” value (scHGF β) is reported as “no detectable binding”.
With “G I G G C P Y W M D R E E C I (GIGGCPYWMDREECI) [ZAP.03G]” the “binding to scHGF β / activation” value (scHGF β) was “significantly impairs its binding; also recorded: significantly impaired” and the “activation of scHGF / cell survival, in words” value (scHGF; BxPC-3 cells) was “dramatically hindered its activity”.
